Series [1] concerns near isoline control maize. In kind it is in vivo, Zea mays. On the procedure:
(§1) Plants were grown in a greenhouse using a randomized complete block design containing four blocks. Each block consisted of twenty-four flats. Flats representing entries 1-12 (segregating 1:1) contained approximately fifteen plants per entry, while flats representing entries 13-24 (non-segregating) contained approximately ten plants per entry. Trait confirmation for GLYAT4621 was conducted for test and control entries at the V2 growth stage using lateral flow strip tests specific for the GLYAT protein. Plants with positive trait confirmation results (expressing GLYAT4621) were used for test entries and plants with negative trait confirmation results (not expressing GLYAT4621) were used as the control entries. Any remaining negative segregants not used for controls were then removed and remaining positive plants were thinned to 5 plants per entry within each block (treatment). At the V4 growth stage, a herbicide treatment containing glyphosate (1.46 L/ha or 20 oz/acre)+nonionic surfactant (0.25% vol./vol.)+ammonium sulfate (3.4 kg/ha) was applied to entries 1, 9, 13, and 21; herbicides containing thifensulfuron (3.5 g/ha or 0.5 oz/acre) and tribenuron (3.5 g/ha or 0.5 oz/acre) each containing nonionic surfactant (0.25% vol./vol.)+ammonium sulfate (3.4 kg/ha) were applied to entries 2, 10, 14 and 22; and a tank mixture of herbicides containing glyphosate, thifensulfuron and tribenuron was applied to entries 3, 11, 15, and 23 (Table 15).
(§2) Herbicide injury was evaluated visually at 14 and 21 days after herbicide application by estimating herbicide injury percentage, where “0” represented no visible injury and “100” represented complete plant death. The injury rating took into account all symptoms of herbicide injury when compared to the untreated entry for the same maize line. Injury symptoms included discoloration, leaf speckling, and wilting. The untreated entries for each maize line were rated as 0% injury and the herbicide treated entries of the same maize line were rated by comparing them to this untreated entry. Photographs were taken at 21 days following herbicide application to record herbicide injury. In order to further characterize tolerance to ALS-inhibiting herbicides, a characteristic of the zm-hra gene in DP-098140-6 maize, plant heights were measured for all entries at 14 and 21 days post herbicide treatment. Plant height was measured in cm from the soil surface to the tip of the highest leaf when extended by hand.
(§3) Means, standard error and P-values were calculated for plant height data. Means were calculated for herbicide injury scores. Means, ranges and standard deviations of protein expression data were calculated for each protein expressed in leaf and seed tissues.

Series [2] deals with DP-098140-6 maize. The class given is in vivo, Zea mays. The settings on record: 98140 maize. The method, then: as §1, §2, §3
In series [3] the test system is near isoline control maize. Nature of the series: Greenhouse herbicide tolerance, visual herbicide injury rating, two generations. In kind it is in vivo, Zea mays. Conditions: for Average Herbicide Injury Rating: Control maize, 0-100 scale, applied at V4. On the procedure:
(§4) The objective of this study was to evaluate the herbicide tolerance and protein expression in maize containing the event DP-098140-6.
as §1, §2, §3

In series [4] the test system is DP-098140-6 maize. The series is described as above. The class given is in vivo, Zea mays. Conditions: applied at V4. On the procedure:
as §4, §1, §2, §3

The nature of series [5]: GLYAT4621 sandwich ELISA, leaf tissue at V5 stage (pg/μg total extractable protein). Details: species or system Zea mays. Conditions: DP-098140-6 maize leaf tissue, V5 growth stage, greenhouse; 20 plants. The method, then:
Expression of the GLYAT4621 and Zm-HRA proteins has been evaluated on the leaf tissue collected at the V5 stage of growth from plants cultivated in greenhouses. For each sample, four fresh leaf punches were collected and ground in sample extraction buffer using a GenoGrinder (Spex Certiprep). Total Extractable Protein (TEP) was determined using the Bio-Rad Protein assay, which is based on the Bradford dye-binding procedure. Sample extracts were diluted in sample extraction buffer for ELISA analysis.
The GLYAT4621 and ZM-HRA ELISA's utilize a “sandwich” format for the quantification of the specific target protein in plant tissue extracts. […] The reaction is stopped with Sulfuric acid and the optical density of each well is determined using a Molecular Devices plate reader with a wavelength setting of 450 nm-650 nm. […] The mean concentration from the duplicate wells is expressed as pg target protein/μg of total extractable protein (TEP). The sample lower limit of quantification (LLOQ) was 10 pg GLYAT4621 protein/μg TEP and the upper detection limit was 2000 pg GLYAT4621 protein/μg TEP. The sample lower limit of quantification was 20 pg ZM-HRA protein/μg TEP and the upper detection limit was 5000 pg ZM-HRA protein/μg TEP.
Background: An ELISA detects its analyte on a solid surface through an enzyme-linked reagent.

Where two headings read alike, the source gives them in different places.

Consider `O=C(O)CNCP(=O)(O)O` [Glyphosate, glyphosate], for which the “Plant height, Least Square Means” value in series [1] (Generation 1, 14 days following treatment, 0 cm = visible plant that has died due to herbicide treatment) is 0.00 cm; in series [1] (Generation 1, 21 days following treatment, 0 cm = visible plant that has died due to herbicide treatment) it was 0.00 cm; in series [1] (Generation 2, 14 days following treatment, 0 cm = plant died due to herbicide), 0.00 cm; in series [1] (Generation 2, 21 days following treatment, 0 cm = plant died due to herbicide), 0.00 cm; with DP-098140-6 maize [2] (Generation 1, 14 days following treatment) it was 103 cm; with DP-098140-6 maize [2] (Generation 1, 21 days following treatment), 120 cm. Also, the “Plant height, Least Square Means” value in the series with DP-098140-6 maize [2] (Generation 2, 14 days following treatment) is 101 cm; with DP-098140-6 maize [2] (Generation 2, 21 days following treatment) it was 115 cm. Also, the “Average Herbicide Injury Rating” value was 100 in series [3] (Generation 1, 14 days post-treatment); 100 in series [3] (Generation 1, 21 days post-treatment); 100 in series [3] (Generation 2, 14 days post-treatment); 100 in series [3] (Generation 2, 21 days post-treatment); 0 in the series with DP-098140-6 maize [4] (Generation 1, 14 days post-treatment, 0 = no visible injury, 100 = complete plant death); 0 in the series with DP-098140-6 maize [4] (Generation 1, 21 days post-treatment, 0-100 scale). In addition, the “Average Herbicide Injury Rating” value came to 0 in the series with DP-098140-6 maize [4] (Generation 2, 14 days post-treatment, 0-100 scale) and 0 in the series with DP-098140-6 maize [4] (Generation 2, 21 days post-treatment, 0-100 scale). In series [3] (sprayed control maize, both generations), this molecule came in with an injury of 100%.

B1: GLYAT4621: glyphosate acetyltransferase protein encoded by the glyat4621 gene, expressed in DP-098140-6 maize (protein)
chain: MAIEVKPINAEDTYDLRHRVLRPNQPIEACMFESDLTRSAFHLGGFYGGKLISVASFHQAEHSELQGKKQYQLRGVATLEGYREQKAGSSLVKHAEEILRKRGADMIWCNARTSASGYYRKLGFSEQGEVFDTPPVGPHILMYKR
modifications: GAT4621 probe
notes: glyphosate acetyltransferase protein encoded by the glyat4621 gene, expressed in DP-098140-6 maize
With B1, the “Expression level of GLYAT4621 protein, Mean” value in series [5] is listed as 571.7 pg/μg TEP.

For the origin of these results see patent publication US7897846B2, “Maize event DP-098140-6 and compositions and methods for the identification and/or detection thereof” (Pioneer Hi-Bred Int'l, Inc., priority 2006, dated 2011).
